Here are results for nine compounds from article PMC8273037 (The Journal of Antibiotics, 2021).

By MIC is commonly meant the least concentration at which growth counts as inhibited. In general, EC50 refers to the concentration giving half of the maximal effect. The EC90 is the concentration needed for an effect of 90%. The term CC50 denotes the concentration that lowers cell viability or growth by half.

Series [1] deals with S. aureus and MRSA. The following applies: cited from earlier work.
Series [2] deals with Human papillomavirus 11, strain HE611260.1. Briefly: HPV-11 NanoLuc reporter replication assay. The format is cell-based.
Series [3] in a line: Cytotoxicity in C-33 A cells. The format is cell-based. The note with it: human.
Series [4] deals with Herpes simplex virus 1, strain E-377. In words: HSV-1 cytopathic effect reduction assay. Type of series: cell-based. A general note: Cytopathic effects are the visible damage that an infection or toxin causes in cultured cells.
For series [5], the system named is Human cytomegalovirus, strain GDGr K17 (resistant isolate). In words: HCMV resistant isolate cytopathic effect reduction assay. The note with it: for EC50 / EC90: Human betaherpesvirus 5, HFF; for EC50: read-out: EC50 (reduced viral replication by 50%); for EC90: read-out: EC90 (reduced viral replication by 90%). Type of series: cell-based.
Series [6] deals with E. coli. The following applies: cited from earlier work.
The subject of series [7] is P. aeruginosa. The following applies: cited from earlier work.
Series [8] concerns HIV-1. The note with it: read-out: EC50, inhibition of infectivity of HIV-1 in vitro; cited from earlier work.
Series [9] relates to Klebsiella pneumoniae ATCC 700603 (MDR). Briefly: Antibacterial growth inhibition / MIC. Type of series: cell-based. The following applies: hit confirmation.
The subject of series [10] is Acinetobacter baumannii ATCC 19606. In words: Antibacterial growth inhibition / MIC. The following applies: hit confirmation.

Converted amounts (≈) assume the structure as drawn. “And” between values parts separate entries of the source, which are not always exact repeats. Identical values can stand only once. Like-named read-outs stand apart in the source and are kept apart here.

Take “3-amino-3,4-seco-28-amino-lup-4(23),20(29)-dien”: the MIC in series [1] (MRSA, bacteriostatic effect) was no more than 0.25 µg/mL.
Consider `Nc1nc2c(ncn2CCOCP(=O)(O)O)c(=O)[nH]1` [9-[2-(Phosphonomethoxy)ethyl]guanine], for which the “SI50 selectivity index (CC50/EC50)” value in [2] (HPV-11, C-33 A cells) is on record as greater than 221. Moreover, the EC50 in series [2] (human papillomavirus 11, C-33-A, read-out: EC50 (reduced viral replication by 50%)) stood at 680 nM. Further, the concentration for an effect of 90% (EC90) in series [2] (human papillomavirus 11, C-33-A, read-out: EC90 (reduced viral replication by 90%)) was determined as 101 µM. Moreover, the 50% cytotoxic concentration (CC50) in series [3] is greater than 150 µM.
With `Nc1nc2c(ncn2COCCO)c(=O)[nH]1` [Acyclovir], the “SI50 selectivity index (CC50/EC50)” value in series [4] (HSV-1 E-377, HFF cells) is >172 and >181. Also, in series [4] (Human alphaherpesvirus 1, HFF, read-out: EC90 (reduced viral replication by 90%)), the EC90 was greater than 150 µM. Further, the EC50 in [4] (read-out: EC50 (reduced viral replication by 50%), HSV-1 E-377, HFF cells) was 830 nM.
Turning to `Nc1ccn(C[C@@H](CO)OCP(=O)(O)O)c(=O)n1` [Cidofovir], the “SI50 selectivity index (CC50/EC50)” value in series [5] (HCMV GDGr K17 (resistant isolate), HFF cells) came to 120. In addition, in series [5], the concentration for a half-maximal effect (EC50) amounted to 920 nM and the EC90 is greater than 30 µM.
For `Nc1nc(O)c2ncn(COC(CO)CO)c2n1` [Ganciclovir], in [5], the EC50 is greater than 150000 nM and the EC90 is greater than 150 µM.
For the compound `CC1(C)CCC2(C(=O)NCCNCCN)CCC3(C)C(=CCC4C5(C)CCC(=O)C(C)(C)C5CCC43C)C2C1` (stereo not shown) [Oleanonic acid amide with diethylentriamine], the minimal inhibitory concentration (MIC) is on record as 25 µM (≈ 13.5 µg/mL) in series [6] and 50 µM (≈ 27 µg/mL) in series [7].
As for `C=C(C)[C@@H]1CC[C@]2(C(=O)O)CC[C@]3(C)[C@H](CC[C@@H]4[C@@]5(C)CC[C@H](O)C(C)(C)[C@@H]5CC[C@]43C)[C@@H]12` [betulinic acid], the EC50 in series [8] was 1400 nM.
Turning to `C[C@H]1[C@H](C)CC[C@]2(C(=O)O)CC[C@]3(C)C(=CC[C@@H]4[C@@]5(C)CC[C@H](O)C(C)(C)[C@@H]5CC[C@]43C)[C@H]12` [ursolic acid], the MIC in [1] (MRSA strain) is 64 µg/mL (≈ 140 µM).
Take Colistin sulfate: in series [9], the “MIC, K. pneumoniae” value came to 0.15 µM. Further, the “MIC, A. baumannii” value in series [10] worked out at 0.15 µM.
